Source: publication PMC7478165, “Derivatisation of parthenolide to address chemoresistant chronic lymphocytic leukaemia” (MedChemComm, 2019)
Where two headings read alike, the source gives them in different places.

What was measured:
[1] = Stability in aqueous solution, pH 7.4; format: physicochemical; conditions: for half-life: pH 7.4, read-out: Stability pH 7.4 T1/2
Protocol: Compounds 2d, 2e, 2f, 2g, 2j, 2aa, 5a, 5d, 5e, 5f, 5ab and 6b were subjected to in vitro DMPK testing. […] The other three (2d, 2j and 2aa) were not retained for further investigation due to poor stability (T1/2 at pH 7.4: 13, 107 and 76 min, Table 1, entries 1, 3 and 4 respectively). One obvious aspect contributing to observed stability is the propensity for PTL derivatives of this type to undergo a retro-amination (reverse-Michael-type mechanism), indeed this reverse reaction is often claimed as a pro-drug mode of action.[29a],[33] […] It is a reasonable assertion that activity observed for these unstable compounds could well be ascribed to free PTL generated rapidly in the assay.

MEC1 CLL cell line = assay: alamarBlue assay, in vitro antileukaemic activity against MEC1 CLL cell line; format: cell-based; conditions: for EC50: MEC1 cell line, alamarBlue assay, library screen, read-out: EC50 ave.
Source text: Defective p53-signalling increases genomic instability and drives tumour progression. A high frequency of p53 inactivation is found in relapsed, treatment-resistant, high risk CLL.[30] […] Owing to resource availability a subset of up to ten of these compounds was prioritised for further investigation. Compounds 2d, 2e, 2j, 2aa, 5a, 5d, 5e, 5f, 5ab and 6b were selected on the basis of reasons including ease of synthetic access, diversity across the chemical space probed and novelty. Those prepared under conditions (i)Scheme 1 (2d, 5a and 6b) were available on a scale and in a purity to directly permit follow-up studies, whereas compounds prepared under conditions (ii)Scheme 1 were prepared on a small scale so were resynthesised. These seven compounds (2e, 2j, 2aa, 5d, 5e, 5f and 5ab) were isolated on >30 mg scale in high purity and progressed to more following studies.
Following the identification of 5f as the most promising drug-like derivative of PTL from the aforementioned parallel/high-throughput screening, the anti-leukaemic activity of 5f was tested once more and compared directly with that of PTL (1) and DMAPT (2a), which serve as comparators and positive controls.
Amine 7 was successfully prepared as follows: 4-Piperidinecarboxylic acid was N-Boc protected to deliver 8 in 92% yield.[43] In order to confidently assign the NMR spectra of compound 8 J-MOD, HSQC and ^1H–^1H COSY were helpful, particularly in establishing that a broad resonance in the proton-decoupled ^13C NMR spectrum, centred on 42.8 ppm, corresponds to the ring-carbons bonded to nitrogen. The carboxylic acid of 8 was converted to the corresponding ethyl-3-keto-propanoate 9 in 24% yield. Conversion of 9 to the N-Boc protected congener 10, was achieved by treatment with acetamidine hydrochloride and potassium carbonate, furnishing 10 in 77% yield. Treatment with trifluoroacetic acid delivered desired compound 7 in 99% yield for the Boc-deprotection step (scale 200 mg, 17% over four linear steps). Thus, evidencing accessibility of amine 7 and with it in hand, it was timely to probe any activity arising from the amine alone. MEC1 sensitivity to 1, 5f and 7 was compared in parallel using the alamarBlue® assay (Fig. 6). […] A pre-peer-reviewed preprint of this article was deposited and may be viewed elsewhere.[44]

[2] = Microsomal stability assay (mouse); conditions: mouse microsomes
[3] = Caco-2 permeability assay; format: in vitro ADME; conditions: human
[4] = Murine intravenous PK study; format: in vivo; conditions: IV 1 mg kg^–1; for Vd: read-out: Mouse PK (IV) VSS
Protocol: In order to determine 5a and 5f are suitable for use as pharmaceutical agents their pharmacokinetic (PK) parameters were next probed. A murine intravenous PK study of compounds 5a and 5f at 1.0 mg kg^–1 was conducted and their concentrations in blood were measured with time (Fig. 4(a)i and (b)i and Table 2).

[5] = Murine oral (PO) PK study; format: in vivo; conditions: PO 10 mg kg^–1; for bioavailability: read-out: Mouse PK (PO) F%
Protocol: The in vivo oral bioavailability of compounds 5a and 5f was compared in a murine PK study at 10 mg kg^–1 (Fig. 4(a)ii and (b)ii and Table 2). In keeping with the intravenous findings, the murine PO half-life of 5f was twice as long as 5a (1.0 versus 0.5 hours, Table 2) and the Cmax attained by 5f was approximately 40% higher than that achieved by 5a (404 versus 283 ng mL^–1). […] Compound 5f was therefore identified as a promising potential new agent with desirable pharmacological properties towards a therapy for drug-resistant CLL.

[6] = MEC1 cell line pEC50 minus calculated log P
[7] = first of two columns headed A to B
[8] = second of two columns headed A to B

Row | Structure (SMILES) | Stability pH 7.4 T1/2 [1] [min] | LipE pEC50–clog P (MEC1 CLL cell line; [6]) | EC50 (MEC1 CLL cell line) [µM] | half-life [1] [h] | Mouse microsomal stability [2, 7] | Mouse microsomal stability [2, 8] | also measured
1 | CCN(CCO)C[C@@H]1C(=O)O[C@H]2[C@H]1CC/C(C)=C/CC[C@@]1(C)O[C@H]21 [C00001] | 13 | 3.31 | 4.7 | – | – | – | –
2 | CCn1cc(CN(C[C@@H]2C(=O)O[C@H]3[C@H]2CC/C(C)=C/CC[C@@]2(C)O[C@H]32)C(C)C)cn1 [C00002] | – | 1.61 | 5.6 | > 2 | 828 | 2 | –
3 | COc1ccc(CN(C)C[C@@H]2C(=O)O[C@H]3[C@H]2CC/C(C)=C/CC[C@@]2(C)O[C@H]32)cc1OC [C00003] | 107 | 1.48 | 5.6 | – | – | – | –
4 | C/C1=C\CC[C@@]2(C)O[C@@H]2[C@H]2OC(=O)[C@@H](CN(C)CCc3ccccc3)[C@@H]2CC1 [C00004] | 76 | 2.52 | 5.9 | – | – | – | –
5 | C/C1=C\CC[C@@]2(C)O[C@@H]2[C@H]2OC(=O)[C@@H](CN3CCC(Oc4cccnc4)CC3)[C@@H]2CC1 [C00006] | – | 2.48 | 5.4 | > 2 | 251 | 6 | –
6 | C/C1=C\CC[C@@]2(C)O[C@@H]2[C@H]2OC(=O)[C@@H](CN3CCC(O)(c4ccccc4)CC3)[C@@H]2CC1 [C00007] | – | – | 6 | > 2 | – | – | LipE pEC50–clog P (MEC1 CLL cell line): 1.90
7 | C/C1=C\CC[C@@]2(C)O[C@@H]2[C@H]2OC(=O)[C@@H](CN3CCC(OCc4cccnc4)CC3)[C@@H]2CC1 [C00009] | – | 2.29 | 7.6 | > 2 | 128 | 11 | efflux ratio ([3]; Caco-2, pH 7.4): 0.8; Papp A→B ([3]; Caco-2, pH 7.4, A to B): 109 nm/s; Papp B→A ([3]; Caco-2, pH 7.4, B to A): 91 nm/s
8 | C/C1=C\CC[C@@]2(C)O[C@@H]2[C@H]2OC(=O)[C@@H](CN3CCCC3)[C@@H]2CC1 [C00011] | – | – | – | – | – | – | Mouse PK (IV) UC (0-inf) [4]: 80.5 ng h mL^–1; clearance ([4]; blood, mouse, read-out: Mouse PK (IV) Cl): 12.4 L/h/kg; half-life ([4]; blood, mouse, read-out: Mouse PK (IV) T1/2 (converted)): 0.66 h; Vd ([4]; blood, mouse): 11.6 L/kg; Mouse PK (PO) UC (0-inf) [5]: 711 ng h mL^–1; Cmax ([5]; in vivo, mouse): 0.283 µg/mL; Tmax ([5]; in vivo, mouse): 0.5 h; bioavailability ([5]; in vivo, mouse): 95.8%
9 | C/C1=C\CC[C@@]2(C)O[C@@H]2[C@H]2OC(=O)[C@@H](CN3CCC(c4cc(O)nc(C)n4)CC3)[C@@H]2CC1 [C00012] | – | – | 7.7 | – | – | – | Mouse PK (IV) Cl [4]: 58 mL min^–1 kg^–1; Mouse PK (IV) T1/2 [4]: 1.14 h; Mouse PK (IV) UC (0-inf) [4]: 289 ng h mL^–1; Vd ([4]; blood, mouse): 4.62 L/kg; Mouse PK (PO) Cmax [5]: 404 ng mL^–1; Mouse PK (PO) UC (0-inf) [5]: 1696 ng h mL^–1; Tmax ([5]; in vivo, mouse): 1 h; bioavailability ([5]; in vivo, mouse): 58.5%
